The numbers were not newly measured in patent publication US20070167440A1, “Novel pyrrolidine compound and a process for preparing the same” (priority 2004, published 2007), which cites them from elsewhere.

The data set concerns gastric motility. The conditions noted are these: mice; disclosed in JP1993-17434.

In the case of `COc1cc(N)c(Cl)cc1C(=O)NC1CC(CO)N(C(c2ccccc2)c2ccccc2)C1` (stereo not shown) [4-amino-5-chloro-N-[1-(diphenylmethyl)-5-(hydroxymethyl)-3-pyrrolidinyl]-2-methoxy-benzamide], the gastric motility result was “increased gastric motility”.
